Measurements: ChEMBL document CHEMBL3745669, “Isolation of bioactive biphenyl compounds from the twigs of Chaenomeles sinensis” (Bioorg Med Chem Lett, 2016)

Key:
[1] = tested on: BV-2; assay: Anti-neuroinflammatory activity in mouse BV2 cells assessed as inhibition of LPS-induced NO production after 24 hrs by Griess assay; assay type: functional, cell-based; conditions: BV-2, 24 h
[2] = tested on: SK-MEL-2; assay: Cytotoxicity against human SK-MEL-2 cells after 48 hrs by SRB assay; assay type: functional, cell-based; conditions: SK-MEL-2, 48 h
[3] = Cytotoxicity against rat C6 cells assessed as viable cells at 20 uM by MTT assay; assay type: cell-based; conditions: read-out: Activity
[4] = tested on: C6; assay: Stimulation of NGF secretion in rat C6 cells at 20 uM after 24 hrs by ELISA; assay type: functional
[5] = Cytotoxicity against human SKOV3 cells after 48 hrs by SRB assay; assay type: functional, cell-based; conditions: SK-OV-3, 48 h
[6] = tested on: A549; assay: Cytotoxicity against human A549 cells after 48 hrs by SRB assay; assay type: functional, cell-based; conditions: A549, 48 h
[7] = Cytotoxicity against mouse BV2 cells assessed as viable cells at 20 uM by MTT assay; assay type: cell-based, BV-2; conditions: read-out: Activity
[8] = Cytotoxicity against human HCT15 cells after 48 hrs by SRB assay; assay type: functional, cell-based; conditions: HCT-15, 48 h

Compound | IC50 [1] | IC50 [2] | viability at 20 µM [3] | Activity [4] | IC50 [5] | IC50 [6] | viability at 20 µM [7] | IC50 [8]
CCCCC/C=C/C(=O)CCc1ccc(O)c(OC)c1 [SHOGAOL] |  |  | 110% | 158.18% |  |  |  | 
COc1ccc(-c2cc(OC)c(O)c(OC)c2)c(OC)c1 | 39.6 µM | 6.94 µM | 119% | 164.56% | 7.84 µM | 5.18 µM | 129% | 7.81 µM
COc1cc(-c2ccccc2O)cc(OC)c1O | 38.1 µM |  | 119% | 137.33% |  |  | 118% | 
COc1cc([C@@H]2c3cc4c(cc3[C@@H](O[C@@H]3O[C@@H]5CO[C@@H](C)O[C@H]5[C@H](O)[C@H]3O)[C@H]3COC(=O)[C@H]23)OCO4)cc(OC)c1O [ETOPOSIDE] |  | 1.33 µM |  |  | 1.96 µM | 1.74 µM |  | 2.95 µM
COc1cc(-c2ccccc2)cc(OC)c1O [AUCUPARIN] | 50.1 µM |  | 117% | 125.76% |  |  | 126% | 

The remaining compounds from weak to strong by IC50 [1], led by results:

IC50 [1] | Compound | IC50 [2] | viability at 20 µM [3] | Activity [4] | IC50 [5] | IC50 [6] | viability at 20 µM [7] | IC50 [8]
49.3 µM | COc1cc(-c2ccccc2)cc(Oc2c(OC)cc([C@@H](O)[C@H](O)CO)cc2OC)c1O [BERBEKORIN A] | 4.49 µM | 119% | 155.02% | 4.03 µM | 4.12 µM | 116% | 1.96 µM
48.4 µM | COc1ccc(-c2cc(OC)c(O)c(Oc3c(OC)cc([C@@H](O)[C@H](O)CO)cc3OC)c2)c(OC)c1 | 16.3 µM | 115% | 125.81% | 29.5 µM | 12.7 µM | 132% | 27.3 µM
28.1 µM | COc1ccccc1-c1cc(OC)c(O)c(OC)c1 |  | 118% | 152.86% |  |  | 138% | 
20.5 µM | CNC(=N)NCCC[C@H](N)C(=O)O [TILARGININE] |  |  |  |  |  | 100% | 
15.8 µM | COc1ccc2c(oc3c(OC)c(OC)c(O)cc32)c1O | 23.5 µM | 113% | 186.49% | 19.3 µM | > 30 µM | 198% | > 30 µM
